Laboratory results published in US9399626B2, “2-thiopyrimidinones” (Pfizer Inc., priority 2011, dated 2016).
Counter-ions that a name gives are not always drawn.

Target: T1, MPO (purified from human polynuclear leukocytes) (Homo sapiens, UniProt P05164)
T1 construct: purified from human polynuclear leukocytes; purchased Calbiochem/EMD Biosciences; host or cells: human polynuclear leukocytes (natural source)
Assay: MPO Amplex Red Activity Assay
Assay type: biochemical
Conditions: Table 1, 2 μM H2O2, pH 7.4
Protocol: MPO Amplex Red Activity Assay.
MPO peroxidase activity was measured by monitoring the formation of resorufin generated from the oxidation of Amplex Red (10-Acetyl-3,7-dihydroxyphenoxazine) (Invitrogen, Carlsbad, Calif.) by MPO (Gomes, Fernandes et al. 2005). Assay mixtures (100 μL total volume) contained 50 mM NaPi pH 7.4, 150 mM NaCl, 1 mM DTPA (diethylenetriaminepentaacetic acid), 2% DMSO, 2 μM H2O2, 30 μM Amplex Red and the reaction was initiated by the addition of […] (purified from human polynuclear leukocytes and purchased from Calbiochem/EMD Biosciences, Gibbstown, N.J.). All assays were performed in 96-well, half-area, black, nonbinding surface, polystyrene plates (Corning) and the production of resorufin (excitation 530 nm, emission 580 nm) was monitored every 20 sec on a Spectramax M2 Microplate Spectrophotometer (Molecular Devices, Palo Alto, Calif.) equipped with Softmax Pro software (Molecular Devices, Palo Alto, Calif.). Reactions to determine the background reaction rate consisted of all assay components and 4 μL of 500 unit/mL bovine catalase (Sigma) in 50 mM KPi pH 7.0. The background rate was subtracted from each reaction progress curve. All data was analyzed using non-linear regression analysis in Microsoft Excel and Kaleidagraph (Synergy Software).
To determine inhibitor potency (kinact/KI) against MPO, the first 600 sec of the reaction progress curves were fit to equation 1, where Vo is the initial rate in RFU/sec and t is time in seconds, to obtain the first order rate constant for enzyme inactivation (kobs) at each inhibitor concentration.
[formula] Equation 1 is a variation of the standard equation for slow binding inhibition where the steady state velocity (Vs) is set to zero. Each kobs value was corrected for auto-inactivation of the enzyme by subtracting the kobs value for the uninhibited reaction. The corrected kobs values were then plotted versus inhibitor concentration ([I]) and fit to equation 2
[formula] where kinact is the maximal rate of inactivation and KI is the inhibitor concentration that yields half the rate of maximal inactivation (Copeland 2005).
Table 1 and (1A) below provides the myeloperoxidase inhibitory activity for the Examples below in accordance with the above-described assay.

T1 sequence (P05164 279-745 limits assumed): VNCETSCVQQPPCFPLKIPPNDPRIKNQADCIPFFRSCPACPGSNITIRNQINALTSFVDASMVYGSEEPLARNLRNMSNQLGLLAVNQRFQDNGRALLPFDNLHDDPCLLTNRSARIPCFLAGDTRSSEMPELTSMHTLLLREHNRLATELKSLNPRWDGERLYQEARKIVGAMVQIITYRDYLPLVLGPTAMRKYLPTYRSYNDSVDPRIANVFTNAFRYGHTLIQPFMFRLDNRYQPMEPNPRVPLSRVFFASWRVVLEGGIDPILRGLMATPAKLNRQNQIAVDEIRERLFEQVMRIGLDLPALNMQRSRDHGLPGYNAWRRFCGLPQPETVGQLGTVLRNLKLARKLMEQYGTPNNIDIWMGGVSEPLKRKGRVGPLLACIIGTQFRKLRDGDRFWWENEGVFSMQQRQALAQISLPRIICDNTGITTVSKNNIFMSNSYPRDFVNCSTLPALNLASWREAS
T1 sequence (P05164 165-273 limits assumed): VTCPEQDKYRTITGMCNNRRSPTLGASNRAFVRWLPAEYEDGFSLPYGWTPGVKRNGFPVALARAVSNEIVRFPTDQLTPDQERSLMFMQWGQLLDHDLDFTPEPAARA

SMILES	MPO kinact/Ki
COc1ccc(Cl)cc1-c1cc(=O)[nH]c(=S)n1CC(N)=O [Example 1, 2-(6-(5-Chloro-2-methoxyphenyl)-4-oxo-2-thioxo-3,4-dihydropyrimidin-1(2H)-yl)acetamide]	11600 1/s per M
COc1ccc(OC)c(-c2cc(=O)[nH]c(=S)n2CC(N)=O)c1 [Example 2, 2-(6-(2,5-Dimethoxyphenyl)-4-oxo-2-thioxo-3,4-dihydropyrimidin-1(2H)-yl)acetamide]	12500 1/s per M
COc1ccc(-c2cc(=O)[nH]c(=S)n2CCO)c(OC)c1 [Example 3, 6-(2,4-Dimethoxyphenyl)-1-(2-hydroxyethyl)-2-thioxo-2,3-dihydropyrimidin-4(1H)-one]	29300 1/s per M
COc1ccc(-c2cc(=O)[nH]c(=S)n2CCO)c(OC)n1 [Example 4, 6-(2,6-Dimethoxypyridin-3-yl)-1-(2-hydroxyethyl)-2-thioxo-2,3-dihydropyrimidin-4(1H)-one]	8790 1/s per M
COc1ccc(-c2cc(=O)[nH]c(=S)n2CCNC(=O)OC(C)(C)C)c(OC)c1 [Example 5, tert-butyl 2-(6-(2,4-dimethoxyphenyl)-4-oxo-2-thioxo-3,4-dihydropyrimidin-1(2H)-yl)ethylcarbamate]	1280 1/s per M
COc1ccc(-c2cc(=O)[nH]c(=S)n2CCN)c(OC)c1 [Example 6, 1-(2-aminoethyl)-6-(2,4-dimethoxyphenyl)-2-thioxo-2,3-dihydropyrimidin-4(1H)-one hydrochloride]	12900 1/s per M
COc1ccc(-c2cc(=O)[nH]c(=S)n2CCN=C(N)N)c(OC)c1 [Example 7, 2-(2-(6-(2,4-dimethoxyphenyl)-4-oxo-2-thioxo-3,4-dihydropyrimidin-1(2H)-yl)ethyl)guanidine]	10900 1/s per M
COc1ccc(-c2cc(=O)[nH]c(=S)n2CCNC(=O)CN)c(OC)c1 [Example 8, 2-amino-N-(2-(6-(2,4-dimethoxyphenyl)-4-oxo-2-thioxo-3,4-dihydropyrimidin-1(2H)-yl)ethyl)acetamide hydrochloride]	12100 1/s per M
COCCn1c(-c2cc(OC)ccc2OC)cc(=O)[nH]c1=S [Example 9, 6-(2,5-dimethoxyphenyl)-1-(2-methoxyethyl)-2-thioxo-2,3-dihydropyrimidin-4(1H)-one]	15000 1/s per M
COCCn1c(-c2ccccn2)cc(=O)[nH]c1=S [Example 10, 1-(2-Methoxyethyl)-6-(pyridin-2-yl)-2-thioxo-2,3-dihydropyrimidin-4(1H)-one]	619 1/s per M
COc1ccccc1-c1cc(=O)[nH]c(=S)n1CCN [Example 11, 1-(2-aminoethyl)-6-(2-methoxyphenyl)-2-thioxo-2,3-dihydropyrimidin-4(1H)-one hydrochloride]	6880 1/s per M
COc1ccc(-c2cc(=O)[nH]c(=S)n2CCO)cc1 [Example 12, 1-(2-hydroxyethyl)-6-(4-methoxyphenyl)-2-thioxo-2,3-dihydropyrimidin-4(1H)-one]	5010 1/s per M
COCCn1c(-c2ccc(C#N)cc2)cc(=O)[nH]c1=S [Example 13, 4-[3-(2-methoxyethyl)-6-oxo-2-thioxo-1,2,3,6-tetrahydro-pyrimidin-4-yl]benzonitrile]	745 1/s per M
NCCn1c(-c2ccc3c(c2)CCO3)cc(=O)[nH]c1=S [Example 14, 1-(2-aminoethyl)-6-(2,3-dihydro-1-benzofuran-5-yl)-2-thioxo-2,3-dihydropyrimidin-4(1H)-one hydrochloride]	5310 1/s per M
O=c1cc(-c2ccc3c(c2)CCO3)n(CCO)c(=S)[nH]1 [Example 15, 6-(2,3-dihydro-1-benzofuran-5-yl)-1-(2-hydroxyethyl)-2-thioxo-2,3-dihydropyrimidin-4(1H)-one]	5420 1/s per M
O=c1cc(-c2cccc3c2OCC3)n(CCO)c(=S)[nH]1 [Example 16, 6-(2,3-dihydro-1-benzofuran-7-yl)-1-(2-hydroxyethyl)-2-thioxo-2,3-dihydropyrimidin-4(1H)-one]	6510 1/s per M
COc1ccccc1-c1cc(=O)[nH]c(=S)n1CC(N)=O [Example 17, 2-[6-(2-methoxyphenyl)-4-oxo-2-thioxo-3,4-dihydropyrimidin-1(2H)-yl]acetamide]	4460 1/s per M

SMILES	MPO kinact/Ki
COc1ccccc1-c1cc(=O)[nH]c(=S)n1CCCN [Example 18, 1-(3-aminopropyl)-6-(2-methoxyphenyl)-2-thioxo-2,3-dihydropyrimidin-4(1H)-one hydrochloride]	8280 1/s per M
COc1ncc(C)cc1-c1cc(=O)[nH]c(=S)n1CCN [Example 19, 1-(2-aminoethyl)-6-(2-methoxy-5-methylpyridin-3-yl)-2-thioxo-2(3-dihydropyrimidin-4(1H)-one trifluoroacetate]	1960 1/s per M
COCCn1c(-c2ncccc2OC)cc(=O)[nH]c1=S [Example 20, 1-(2-methoxyethyl)-6-(3-methoxypyridin-2-yl)-2-thioxo-2,3-dihydropyrimidin-4(1H)-one]	1330 1/s per M
COc1nc(C)ccc1-c1cc(=O)[nH]c(=S)n1CCO [Example 21, 1-(2-hydroxyethyl)-6-(2-methoxy-6-methylpyridin-3-yl)-2-thioxo-2,3-dihydropyrimidin-4(1H)-one]	4530 1/s per M
COc1ccc(C)nc1-c1cc(=O)[nH]c(=S)n1CCO [Example 22, 1-(2-hydroxyethyl)-6-(3-methoxy-6-methylpyridin-2-yl)-2-thioxo-2,3-dihydropyrimidin-4(1H)-one]	6340 1/s per M
COCCn1c(-c2cccnc2OC)cc(=O)[nH]c1=S [Example 23, 1-(2-methoxyethyl)-6-(2-methoxypyridin-3-yl)-2-thioxo-2,3-dihydropyrimidin-4(1H)-one]	991 1/s per M
CSc1ccccc1-c1cc(=O)[nH]c(=S)n1CCO [Example 24, 1-(2-hydroxyethyl)-6-[2-(methylthio)phenyl]-2-thioxo-2,3-dihydropyrimidin-4(1H)-one]	7640 1/s per M
COc1cc(F)ccc1-c1cc(=O)[nH]c(=S)n1CCN [Example 25, 1-(2-aminoethyl)-6-(4-fluoro-2-methoxyphenyl)-2-thioxo-2,3-dihydropyrimidin-4(1H)-one hydrochloride]	9210 1/s per M
COc1ccc(F)cc1-c1cc(=O)[nH]c(=S)n1CCN.Cl [Example 26, 1-(2-aminoethyl)-6-(5-fluoro-2-methoxyphenyl)-2-thioxo-2,3-dihydropyrimidin-4(1H)-one hydrochloride]	3180 1/s per M
COc1cc(F)ccc1-c1cc(=O)[nH]c(=S)n1CCO [Example 27, 6-(4-fluoro-2-methoxyphenyl)-1-(2-hydroxyethyl)-2-thioxo-2,3-dihydropyrimidin-4(1H)-one]	15800 1/s per M
COc1ccc(F)cc1-c1cc(=O)[nH]c(=S)n1CCO [Example 28, 6-(5-fluoro-2-methoxyphenyl)-1-(2-hydroxyethyl)-2-thioxo-2,3-dihydropyrimidin-4(1H)-one]	13700 1/s per M
NC(=O)Cn1c(-c2cccc3[nH]ccc23)cc(=O)[nH]c1=S [Example 29, 2-[6-(1H-indol-4-yl)-4-oxo-2-thioxo-3,4-dihydropyrimidin-1(2H)-yl]acetamide]	14900 1/s per M
NCCCn1c(-c2cccc3[nH]ccc23)cc(=O)[nH]c1=S [Example 30, 1-(3-aminopropyl)-6-(1H-indol-4-yl)-2-thioxo-2,3-dihydropyrimidin-4(1H)-one trifluoroacetate]	5870 1/s per M
NC(=O)Cn1c(-c2cccc3ccoc23)cc(=O)[nH]c1=S [Example 31, 2-[6-(1-benzofuran-7-yl)-4-oxo-2-thioxo-3,4-dihydropyrimidin-1(2H)-yl]acetamide]	7680 1/s per M
NCCCn1c(-c2n[nH]c3ccccc23)cc(=O)[nH]c1=S [Example 32, 1-(3-aminopropyl)-6-(1H-indazol-3-yl)-2-thioxo-2,3-dihydropyrimidin-4(1H)-one formate]	2120 1/s per M
COCCn1c(-c2c[nH]c3ccccc23)cc(=O)[nH]c1=S [Example 33, 6-(1H-indol-3-yl)-1-(2-methoxyethyl)-2-thioxo-2,3-dihydropyrimidin-4(1H)-one]	4520 1/s per M
NCCCn1c(-c2cccc3ccoc23)cc(=O)[nH]c1=S [Example 34, 1-(3-aminopropyl)-6-(1-benzofuran-7-yl)-2-thioxo-2,3-dihydropyrimidin-4(1H)-one hydrochloride]	13100 1/s per M
